Where two headings read alike, the source gives them in different places.
Assays:
UreG [1] = biological target: T1, UreG (Helicobacter pylori, UniProt Q09066); assay: biochemical; type: biochemical, H. pylori
Protocol: A Malachite Green Phosphate Assay Kit (Abcam) was utilized to quantify the hydrolysis of GTP by UreG under various conditions. […] GTPase activity of UreG was triggered through the addition of 10 mM KHCO3, after which the reaction was incubated at 37°C for 30 min; then, the free phosphate from hydrolysis of GTP was determined. […] To eliminate the potential effect of small compounds on malachite green assay, the assay included a subtraction of the absorbance of reaction with the same amounts of compounds but without UreG enzyme for each reading.

UreG [2] = biological target: T1, UreG; assay: biochemical; type: binding, H. pylori
H. pylori = assay: Growth of H. pylori in neutral and acidic brucella broth (OD600); type: cell-based; settings: for OD600(pH5): acidic brucella broth pH 5.0, 24 h, control 0.93

T1 sequence (Q09066 whole entry): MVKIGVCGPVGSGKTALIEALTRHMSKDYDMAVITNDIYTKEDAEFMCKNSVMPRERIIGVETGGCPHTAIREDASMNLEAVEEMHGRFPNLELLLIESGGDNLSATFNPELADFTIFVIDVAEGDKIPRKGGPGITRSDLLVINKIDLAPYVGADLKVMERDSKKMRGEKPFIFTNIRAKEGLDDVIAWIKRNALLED

SMILES: Cc1cccc(N2CCN(C(=O)c3cc(S(=O)(=O)N(C)C)ccc3N3CCCC3)CC2)c1C [cmpd4]
- IC50 (UreG [1]): 16.8 ± 6.5 µM
- Normalized GTPase activity(%) (UreG [1]; log[μM] 0): 97.2%
- Normalized GTPase activity(%) (UreG [1]; log[μM] 0.60206): 90.0%
- Normalized GTPase activity(%) (UreG [1]; log[μM] 0.90309): 69.0%
- Normalized GTPase activity(%) (UreG [1]; log[μM] 1.20412): 56.9%
- Normalized GTPase activity(%) (UreG [1]; log[μM] 1.50515): 41.1%
- Normalized GTPase activity(%) (UreG [1]; log[μM] 1.79588): 28.1%
- Normalized GTPase activity(%) (UreG [1]; log[μM] 2.09691): 11.6%
- Normalized GTPase activity(%) (UreG [1]; log[μM] 2.39794): 16.3%
- Normalized GTPase activity(%) (UreG [1]; purified Ni-UreG (5 µM), 20 µM small compound): 43.9%
- inhibition at 20 µM (UreG [1]; read-out: inhibition of the GTPase activity of UreG): 37 to 72%
- Normalized fluo (UreG [2]): 0.61
- Normalized fluo (UreG [2]; UreG + compound 50μM, Temperature 30.19): 4.76
- Normalized fluo (UreG [2]; UreG + compound 50μM, Temperature 30.56): 4.12
- Normalized fluo (UreG [2]; UreG + compound 50μM, Temperature 30.94): 3.54
- Normalized fluo (UreG [2]; UreG + compound 50μM, Temperature 31.33): 2.90
- Normalized fluo (UreG [2]; UreG + compound 50μM, Temperature 31.72): 2.50
- Normalized fluo (UreG [2]; UreG + compound 50μM, Temperature 32.09): 2.10
- Normalized fluo (UreG [2]; UreG + compound 50μM, Temperature 32.47): 1.61
- Normalized fluo (UreG [2]; UreG + compound 50μM, Temperature 32.85): 1.32
- Normalized fluo (UreG [2]; UreG + compound 50μM, Temperature 33.30): 0.93
- Normalized fluo (UreG [2]; UreG + compound 50μM, Temperature 33.65): 0.64
- Normalized fluo (UreG [2]; UreG + compound 50μM, Temperature 34.08): 0.41
- Normalized fluo (UreG [2]; UreG + compound 50μM, Temperature 34.47): 0.19
- Normalized fluo (UreG [2]; UreG + compound 50μM, Temperature 34.84): 0.16
- Normalized fluo (UreG [2]; UreG + compound 50μM, Temperature 35.21): 0.06
- Normalized fluo (UreG [2]; UreG + compound 50μM, Temperature 35.58): 3.2e-7
- Normalized fluo (UreG [2]; UreG + compound 50μM, Temperature 35.96): 0.09
- Normalized fluo (UreG [2]; UreG + compound 50μM, Temperature 36.34): 0.11
- Normalized fluo (UreG [2]; UreG + compound 50μM, Temperature 36.71): 0.29
- Normalized fluo (UreG [2]; UreG + compound 50μM, Temperature 37.48): 0.97
- Normalized fluo (UreG [2]; UreG + compound 50μM, Temperature 37.86): 1.58
- Normalized fluo (UreG [2]; UreG + compound 50μM, Temperature 38.23): 2.12
- Normalized fluo (UreG [2]; UreG + compound 50μM, Temperature 38.61): 2.84
- Normalized fluo (UreG [2]; UreG + compound 50μM, Temperature 38.99): 3.60
- Normalized fluo (UreG [2]; UreG + compound 50μM, Temperature 39.38): 4.60
- Normalized fluo (UreG [2]; UreG + compound 50μM, Temperature 39.76): 5.58
- Normalized fluo (UreG [2]; UreG + compound 50μM, Temperature 40.14): 6.65
- Normalized fluo (UreG [2]; UreG + compound 50μM, Temperature 40.52): 7.99
- Normalized fluo (UreG [2]; UreG + compound 50μM, Temperature 40.91): 9.53
- Normalized fluo (UreG [2]; UreG + compound 50μM, Temperature 41.29): 11.09
- Normalized fluo (UreG [2]; UreG + compound 50μM, Temperature 41.66): 12.65
- Normalized fluo (UreG [2]; UreG + compound 50μM, Temperature 42.04): 14.59
- Normalized fluo (UreG [2]; UreG + compound 50μM, Temperature 42.42): 16.59
- Normalized fluo (UreG [2]; UreG + compound 50μM, Temperature 42.81): 18.72
- Normalized fluo (UreG [2]; UreG + compound 50μM, Temperature 43.18): 21.02
- Normalized fluo (UreG [2]; UreG + compound 50μM, Temperature 43.56): 23.41
- Normalized fluo (UreG [2]; UreG + compound 50μM, Temperature 43.94): 25.90
- Normalized fluo (UreG [2]; UreG + compound 50μM, Temperature 44.33): 28.66
- Normalized fluo (UreG [2]; UreG + compound 50μM, Temperature 44.71): 31.01
- Normalized fluo (UreG [2]; UreG + compound 50μM, Temperature 45.09): 34.36
- Normalized fluo (UreG [2]; UreG + compound 50μM, Temperature 45.47): 37.25
- Normalized fluo (UreG [2]; UreG + compound 50μM, Temperature 45.85): 40.25
- Normalized fluo (UreG [2]; UreG + compound 50μM, Temperature 46.23): 43.53
- Normalized fluo (UreG [2]; UreG + compound 50μM, Temperature 46.60): 46.72
- Normalized fluo (UreG [2]; UreG + compound 50μM, Temperature 46.99): 50.00
- Normalized fluo (UreG [2]; UreG + compound 50μM, Temperature 47.37): 53.25
- Normalized fluo (UreG [2]; UreG + compound 50μM, Temperature 47.75): 56.55
- Normalized fluo (UreG [2]; UreG + compound 50μM, Temperature 48.13): 59.79
- Normalized fluo (UreG [2]; UreG + compound 50μM, Temperature 48.52): 62.98
- Normalized fluo (UreG [2]; UreG + compound 50μM, Temperature 48.89): 66.11
- Normalized fluo (UreG [2]; UreG + compound 50μM, Temperature 49.28): 69.46
- Normalized fluo (UreG [2]; UreG + compound 50μM, Temperature 49.65): 72.30
- Normalized fluo (UreG [2]; UreG + compound 50μM, Temperature 50.04): 75.42
- Normalized fluo (UreG [2]; UreG + compound 50μM, Temperature 50.42): 78.05
- Normalized fluo (UreG [2]; UreG + compound 50μM, Temperature 50.80): 80.94
- Normalized fluo (UreG [2]; UreG + compound 50μM, Temperature 51.19): 83.37
- Normalized fluo (UreG [2]; UreG + compound 50μM, Temperature 51.56): 85.74
- Normalized fluo (UreG [2]; UreG + compound 50μM, Temperature 51.96): 88.30
- Normalized fluo (UreG [2]; UreG + compound 50μM, Temperature 52.34): 90.21
- Normalized fluo (UreG [2]; UreG + compound 50μM, Temperature 52.72): 92.02
- Normalized fluo (UreG [2]; UreG + compound 50μM, Temperature 53.10): 93.58
- Normalized fluo (UreG [2]; UreG + compound 50μM, Temperature 53.48): 95.15
- Normalized fluo (UreG [2]; UreG + compound 50μM, Temperature 53.86): 96.31
- Normalized fluo (UreG [2]; UreG + compound 50μM, Temperature 54.24): 97.30
- Normalized fluo (UreG [2]; UreG + compound 50μM, Temperature 54.62): 98.18
- Normalized fluo (UreG [2]; UreG + compound 50μM, Temperature 55.00): 98.87
- Normalized fluo (UreG [2]; UreG + compound 50μM, Temperature 55.38): 99.53
- Normalized fluo (UreG [2]; UreG + compound 50μM, Temperature 55.77): 100.00
- ΔTm at 50 µM (UreG [2]; read-out: thermal shift on the melting temperature of UreG): ~2.5 °C
- OD600(pH5) (H. pylori): 0.46
- OD600(pH5) (H. pylori; listed as cmp4): 0.464
- OD600 (pH7) (H. pylori; neutral medium, 24 h, control 0.18): 0.141
